Assay results reported in the kinase profiling compilation of Christmann-Franck et al. (2016).

Key:
Assay in all cases: KINOMEscan competition binding
Details in all cases: compound 10.0 µM
MAPKAPK5 (human) = MAPKAPK5 (human) (UniProt Q8IW41)
HIPK4 (human) = HIPK4 (human) (UniProt Q8NE63)
HCK (human) = HCK (human) (UniProt P08631)
MYLK4 (human) = MYLK4 (human) (UniProt Q86YV6)
MYLK (human) = MYLK (human) (UniProt Q15746)
PRKG1 (human) = PRKG1 (human) (UniProt Q13976)
NIM1 (human) = NIM1 (human) (UniProt Q8IY84)
DDR1 (human) = DDR1 (human) (UniProt Q08345)
DAPK2 (human) = DAPK2 (human) (UniProt Q9UIK4)
STK38 (human) = STK38 (human) (UniProt Q15208)
EPHB4 (human) = EPHB4 (human) (UniProt P54760)
RPS6KA6 KD1 (human) = RPS6KA6 KD1 (human) (UniProt Q9UK32)
PKMYT1 (human) = PKMYT1 (human) (UniProt Q99640)
ULK2 (human) = ULK2 (human) (UniProt Q8IYT8)
FRK (human) = FRK (human) (UniProt P42685)
PIK3C2G (human) = PIK3C2G (human) (UniProt O75747)
EIF2AK1 (human) = EIF2AK1 (human) (UniProt Q9BQI3)
SRPK1 (human) = SRPK1 (human) (UniProt Q96SB4)
PHKG2 (human) = PHKG2 (human) (UniProt P15735)
SIK3 (human) = SIK3 (human) (UniProt Q9Y2K2)
MAPK1 (human) = MAPK1 (human) (UniProt P28482)
RPS6KA4 KD2 (human) = RPS6KA4 KD2 (human) (UniProt O75676)
MYLK2 (human) = MYLK2 (human) (UniProt Q9H1R3)
EPHA1 (human) = EPHA1 (human) (UniProt P21709)
STK38L (human) = STK38L (human) (UniProt Q9Y2H1)
PRKD3 (human) = PRKD3 (human) (UniProt O94806)
[1] = system: RET (human), P07949 [M918T]
LIMK2 (human) = LIMK2 (human) (UniProt P53671)
AKT3 (human) = AKT3 (human) (UniProt Q9Y243)
MAP3K6 (human) = MAP3K6 (human) (UniProt O95382)
PIK3CD (human) = PIK3CD (human) (UniProt O00329)
[2] = system: EGFR (human), P00533 [T790M]
EPHB2 (human) = EPHB2 (human) (UniProt P29323)
Chain of EPHB2 (human) (P29323 whole entry, looked up): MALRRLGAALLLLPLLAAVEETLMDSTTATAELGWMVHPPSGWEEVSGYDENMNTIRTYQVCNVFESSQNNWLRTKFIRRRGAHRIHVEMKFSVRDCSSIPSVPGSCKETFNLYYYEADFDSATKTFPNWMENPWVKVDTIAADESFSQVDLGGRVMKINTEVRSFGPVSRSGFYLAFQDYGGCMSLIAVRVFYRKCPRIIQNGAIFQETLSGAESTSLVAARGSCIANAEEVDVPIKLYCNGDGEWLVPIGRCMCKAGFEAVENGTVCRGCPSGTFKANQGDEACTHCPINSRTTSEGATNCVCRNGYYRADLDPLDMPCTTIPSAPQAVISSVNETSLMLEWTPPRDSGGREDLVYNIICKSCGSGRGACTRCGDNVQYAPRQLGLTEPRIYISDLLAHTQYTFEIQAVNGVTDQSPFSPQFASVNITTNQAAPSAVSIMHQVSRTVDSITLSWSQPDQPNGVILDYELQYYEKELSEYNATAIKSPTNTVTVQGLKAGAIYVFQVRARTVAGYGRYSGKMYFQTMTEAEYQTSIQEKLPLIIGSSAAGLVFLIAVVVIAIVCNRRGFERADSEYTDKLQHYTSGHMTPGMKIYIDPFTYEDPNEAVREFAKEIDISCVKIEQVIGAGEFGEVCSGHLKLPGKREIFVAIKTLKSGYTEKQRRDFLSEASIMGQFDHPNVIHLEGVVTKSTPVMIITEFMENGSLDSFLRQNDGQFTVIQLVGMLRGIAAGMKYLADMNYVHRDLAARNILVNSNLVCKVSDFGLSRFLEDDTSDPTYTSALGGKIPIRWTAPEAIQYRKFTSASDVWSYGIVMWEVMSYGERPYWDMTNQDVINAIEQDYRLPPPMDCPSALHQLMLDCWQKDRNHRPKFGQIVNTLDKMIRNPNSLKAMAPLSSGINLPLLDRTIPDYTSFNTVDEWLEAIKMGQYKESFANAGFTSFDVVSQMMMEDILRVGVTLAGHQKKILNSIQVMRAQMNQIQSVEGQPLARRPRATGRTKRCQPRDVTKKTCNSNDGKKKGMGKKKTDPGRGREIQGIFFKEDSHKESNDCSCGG

Chain of MAPKAPK5 (human) (Q8IW41 whole entry, looked up): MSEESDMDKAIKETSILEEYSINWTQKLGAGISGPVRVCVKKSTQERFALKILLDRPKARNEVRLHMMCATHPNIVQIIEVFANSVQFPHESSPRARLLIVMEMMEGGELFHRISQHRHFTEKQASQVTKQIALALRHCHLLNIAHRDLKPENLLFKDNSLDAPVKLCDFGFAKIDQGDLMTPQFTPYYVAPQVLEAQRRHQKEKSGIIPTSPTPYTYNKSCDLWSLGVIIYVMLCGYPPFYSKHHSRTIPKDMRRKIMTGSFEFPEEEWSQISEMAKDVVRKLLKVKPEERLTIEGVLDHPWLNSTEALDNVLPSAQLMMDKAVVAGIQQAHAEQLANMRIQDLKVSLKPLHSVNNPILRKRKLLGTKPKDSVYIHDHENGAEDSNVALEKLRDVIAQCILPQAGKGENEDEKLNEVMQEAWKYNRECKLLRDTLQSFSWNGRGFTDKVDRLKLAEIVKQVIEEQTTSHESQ
Chain of MYLK2 (human) (Q9H1R3 whole entry, looked up): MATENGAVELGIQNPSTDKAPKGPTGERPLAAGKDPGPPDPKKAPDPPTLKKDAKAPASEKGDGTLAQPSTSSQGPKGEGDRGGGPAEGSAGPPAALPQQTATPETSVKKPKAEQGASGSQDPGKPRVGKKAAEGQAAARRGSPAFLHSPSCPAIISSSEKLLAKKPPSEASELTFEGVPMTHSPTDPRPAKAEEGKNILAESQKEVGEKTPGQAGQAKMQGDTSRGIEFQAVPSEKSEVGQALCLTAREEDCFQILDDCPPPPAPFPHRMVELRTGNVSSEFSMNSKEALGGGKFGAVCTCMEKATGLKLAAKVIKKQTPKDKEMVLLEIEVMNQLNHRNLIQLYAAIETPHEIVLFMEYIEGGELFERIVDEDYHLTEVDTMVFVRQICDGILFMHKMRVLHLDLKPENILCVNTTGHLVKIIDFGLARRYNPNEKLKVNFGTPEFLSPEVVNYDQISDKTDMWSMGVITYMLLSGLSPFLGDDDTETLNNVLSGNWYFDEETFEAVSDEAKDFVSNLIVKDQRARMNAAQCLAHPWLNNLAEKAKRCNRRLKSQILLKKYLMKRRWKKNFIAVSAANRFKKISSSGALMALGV
Chain of STK38L (human) (Q9Y2H1 whole entry, looked up): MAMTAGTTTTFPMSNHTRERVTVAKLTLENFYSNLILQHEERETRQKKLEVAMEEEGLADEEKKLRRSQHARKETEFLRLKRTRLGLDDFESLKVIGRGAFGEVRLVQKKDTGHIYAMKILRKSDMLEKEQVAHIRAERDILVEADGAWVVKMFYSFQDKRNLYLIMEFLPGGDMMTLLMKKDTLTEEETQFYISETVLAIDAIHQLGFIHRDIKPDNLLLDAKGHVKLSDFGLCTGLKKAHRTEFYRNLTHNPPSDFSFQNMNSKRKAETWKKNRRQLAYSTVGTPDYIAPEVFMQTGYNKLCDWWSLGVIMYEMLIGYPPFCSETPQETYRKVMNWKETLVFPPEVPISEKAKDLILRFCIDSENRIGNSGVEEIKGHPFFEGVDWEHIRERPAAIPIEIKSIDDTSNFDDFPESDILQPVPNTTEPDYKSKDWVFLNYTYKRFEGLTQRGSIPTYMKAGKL
Chain of PRKG1 (human) (Q13976 whole entry, looked up): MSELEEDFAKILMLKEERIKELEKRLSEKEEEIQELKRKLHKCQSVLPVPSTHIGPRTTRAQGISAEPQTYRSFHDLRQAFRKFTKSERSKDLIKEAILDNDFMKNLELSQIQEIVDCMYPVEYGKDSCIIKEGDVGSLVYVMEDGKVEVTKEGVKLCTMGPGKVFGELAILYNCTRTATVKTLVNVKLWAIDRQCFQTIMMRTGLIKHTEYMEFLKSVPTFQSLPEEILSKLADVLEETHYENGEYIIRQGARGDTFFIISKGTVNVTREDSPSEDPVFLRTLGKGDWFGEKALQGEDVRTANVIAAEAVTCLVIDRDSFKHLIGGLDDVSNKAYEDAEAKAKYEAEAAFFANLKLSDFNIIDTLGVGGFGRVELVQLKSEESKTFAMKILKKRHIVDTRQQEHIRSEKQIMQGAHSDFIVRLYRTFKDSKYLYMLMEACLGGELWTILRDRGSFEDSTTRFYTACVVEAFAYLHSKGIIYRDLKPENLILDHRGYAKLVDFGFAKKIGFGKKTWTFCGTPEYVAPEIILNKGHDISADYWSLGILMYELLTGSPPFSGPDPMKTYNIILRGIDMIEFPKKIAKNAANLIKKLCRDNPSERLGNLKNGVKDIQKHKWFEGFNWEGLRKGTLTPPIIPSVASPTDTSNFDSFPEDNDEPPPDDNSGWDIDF
Chain of AKT3 (human) (Q9Y243 whole entry, looked up): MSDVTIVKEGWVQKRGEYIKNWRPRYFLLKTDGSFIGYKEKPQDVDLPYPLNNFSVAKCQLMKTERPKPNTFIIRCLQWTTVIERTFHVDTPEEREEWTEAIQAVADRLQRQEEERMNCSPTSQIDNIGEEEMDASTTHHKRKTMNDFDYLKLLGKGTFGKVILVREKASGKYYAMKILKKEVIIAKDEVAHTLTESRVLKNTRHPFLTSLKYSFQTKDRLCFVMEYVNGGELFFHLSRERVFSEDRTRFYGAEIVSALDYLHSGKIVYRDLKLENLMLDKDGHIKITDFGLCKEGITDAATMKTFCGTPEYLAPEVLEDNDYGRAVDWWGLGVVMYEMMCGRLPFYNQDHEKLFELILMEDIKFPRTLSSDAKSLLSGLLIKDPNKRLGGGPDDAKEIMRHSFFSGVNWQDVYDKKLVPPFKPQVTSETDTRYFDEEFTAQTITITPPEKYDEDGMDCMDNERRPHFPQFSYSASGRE
Chain of RPS6KA6 KD1 (human) (Q9UK32 whole entry, looked up): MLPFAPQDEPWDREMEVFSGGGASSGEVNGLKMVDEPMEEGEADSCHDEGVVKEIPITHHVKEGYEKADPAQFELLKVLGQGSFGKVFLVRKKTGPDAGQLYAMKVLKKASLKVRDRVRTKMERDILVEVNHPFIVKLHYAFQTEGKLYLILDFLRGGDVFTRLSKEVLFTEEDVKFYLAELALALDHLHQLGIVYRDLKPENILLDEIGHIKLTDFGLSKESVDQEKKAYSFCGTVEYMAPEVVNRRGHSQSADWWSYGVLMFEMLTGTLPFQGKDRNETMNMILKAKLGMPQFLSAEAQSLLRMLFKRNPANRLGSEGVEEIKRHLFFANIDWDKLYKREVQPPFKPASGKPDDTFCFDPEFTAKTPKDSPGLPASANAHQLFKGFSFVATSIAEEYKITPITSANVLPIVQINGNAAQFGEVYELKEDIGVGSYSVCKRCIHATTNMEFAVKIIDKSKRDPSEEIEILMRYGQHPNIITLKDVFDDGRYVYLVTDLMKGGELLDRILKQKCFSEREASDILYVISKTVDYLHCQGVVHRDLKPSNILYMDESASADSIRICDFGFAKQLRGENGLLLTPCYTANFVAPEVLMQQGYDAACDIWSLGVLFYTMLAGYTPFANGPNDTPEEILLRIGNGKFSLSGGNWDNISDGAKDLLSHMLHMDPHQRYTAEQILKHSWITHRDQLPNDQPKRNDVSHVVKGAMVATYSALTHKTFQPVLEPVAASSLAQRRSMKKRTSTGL
Chain of PKMYT1 (human) (Q99640 whole entry, looked up): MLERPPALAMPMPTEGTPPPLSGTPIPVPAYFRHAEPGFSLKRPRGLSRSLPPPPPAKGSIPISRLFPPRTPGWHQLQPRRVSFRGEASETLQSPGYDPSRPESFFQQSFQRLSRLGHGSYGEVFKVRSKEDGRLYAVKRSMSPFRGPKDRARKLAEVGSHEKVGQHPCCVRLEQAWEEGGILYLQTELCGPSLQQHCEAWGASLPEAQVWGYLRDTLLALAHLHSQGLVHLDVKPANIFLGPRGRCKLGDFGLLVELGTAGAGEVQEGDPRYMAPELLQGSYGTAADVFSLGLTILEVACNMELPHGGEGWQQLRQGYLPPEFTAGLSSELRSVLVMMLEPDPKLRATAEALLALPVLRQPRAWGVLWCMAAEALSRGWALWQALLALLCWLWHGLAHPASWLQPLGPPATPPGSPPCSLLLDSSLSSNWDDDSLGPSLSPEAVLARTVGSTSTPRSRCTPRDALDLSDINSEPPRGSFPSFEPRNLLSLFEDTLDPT

Structure (SMILES) | kinase still bound, per cent of control (MAPKAPK5 (human)) | kinase still bound, per cent of control (HIPK4 (human)) | kinase still bound, per cent of control (HCK (human)) | kinase still bound, per cent of control (MYLK4 (human)) | kinase still bound, per cent of control (MYLK (human)) | kinase still bound, per cent of control (PRKG1 (human)) | kinase still bound, per cent of control (NIM1 (human)) | kinase still bound, per cent of control (DDR1 (human)) | kinase still bound, per cent of control (DAPK2 (human)) | kinase still bound, per cent of control (STK38 (human)) | kinase still bound, per cent of control (EPHB4 (human)) | kinase still bound, per cent of control (RPS6KA6 KD1 (human)) | kinase still bound, per cent of control (PKMYT1 (human)) | kinase still bound, per cent of control (ULK2 (human)) | kinase still bound, per cent of control (FRK (human)) | kinase still bound, per cent of control (PIK3C2G (human)) | kinase still bound, per cent of control (EIF2AK1 (human)) | kinase still bound, per cent of control (SRPK1 (human)) | kinase still bound, per cent of control (PHKG2 (human)) | kinase still bound, per cent of control (SIK3 (human)) | further results
NC(=O)Nc1cc(-c2cccc(F)c2)sc1C(=O)N[C@@H]1CCCNC1 | 0.05% | 38% | 0% | 51% | 3.3% | 0.8% | 13% | 10% | 5.4% | 4% | 6.4% | 0.3% | 33% | 0% | 0.65% | 64% | 88% | 1.4% | 1.6% | 6.2% | kinase still bound, per cent of control (MAPK1 (human)): 65%; kinase still bound, per cent of control (RPS6KA4 KD2 (human)): 0.35%; kinase still bound, per cent of control (MYLK2 (human)): 67%; kinase still bound, per cent of control (EPHA1 (human)): 1.4%; kinase still bound, per cent of control (STK38L (human)): 0%; kinase still bound, per cent of control (PRKD3 (human)): 2.2%; kinase still bound, per cent of control [1]: 0%; kinase still bound, per cent of control (LIMK2 (human)): 88%; kinase still bound, per cent of control (AKT3 (human)): 100%; kinase still bound, per cent of control (MAP3K6 (human)): 25%; kinase still bound, per cent of control (PIK3CD (human)): 100%; kinase still bound, per cent of control [2]: 0.05%; kinase still bound, per cent of control (EPHB2 (human)): 9.6%
COc1cc2ncnc(-n3nc(-c4ccccn4)nc3N)c2cc1OC | 100% | 6% | 12% | 25% | 0.8% | 100% | 89% | 88% | 12% | 51% | 22% | 20% | 63% | 3% | 19% | 8.2% | 51% | 83% | 36% | 83% | kinase still bound, per cent of control (MAPK1 (human)): 56%; kinase still bound, per cent of control (RPS6KA4 KD2 (human)): 0.6%; kinase still bound, per cent of control (MYLK2 (human)): 61%; kinase still bound, per cent of control (EPHA1 (human)): 14%; kinase still bound, per cent of control (STK38L (human)): 69%; kinase still bound, per cent of control (PRKD3 (human)): 42%; kinase still bound, per cent of control [1]: 14%; kinase still bound, per cent of control (LIMK2 (human)): 20%; kinase still bound, per cent of control (AKT3 (human)): 100%; kinase still bound, per cent of control (MAP3K6 (human)): 64%; kinase still bound, per cent of control (PIK3CD (human)): 5%; kinase still bound, per cent of control [2]: 67%; kinase still bound, per cent of control (EPHB2 (human)): 47%
COc1cc(C(=O)N2CCC(N3CCN(C)CC3)CC2)ccc1Nc1ncc2c(n1)N(C)c1ccccc1C(=O)N2C | 97% | 100% | 100% | 80% | 8.7% | 98% | 100% | 100% | 67% | 96% | 100% | 92% | 80% | 67% | 34% | 100% | 100% | 94% | 33% | 100% | kinase still bound, per cent of control (MAPK1 (human)): 85%; kinase still bound, per cent of control (RPS6KA4 KD2 (human)): 46%; kinase still bound, per cent of control (MYLK2 (human)): 98%; kinase still bound, per cent of control (EPHA1 (human)): 100%; kinase still bound, per cent of control (STK38L (human)): 100%; kinase still bound, per cent of control (PRKD3 (human)): 42%; kinase still bound, per cent of control [1]: 100%; kinase still bound, per cent of control (LIMK2 (human)): 100%; kinase still bound, per cent of control (AKT3 (human)): 100%; kinase still bound, per cent of control (MAP3K6 (human)): 100%; kinase still bound, per cent of control (PIK3CD (human)): 62%; kinase still bound, per cent of control [2]: 88%; kinase still bound, per cent of control (EPHB2 (human)): 100%
